Test results: US20150344457A1, “METHODS OF INHIBITING PRMT5” (EPIZYME, INC., priority 2012, published 2015)
Like-named read-outs stand apart in the source and are kept apart here.

Assays:
Z-138 cells = assay: Z-138 Proliferation Assay (Cell Titer Glo, 5 days); type: cell-based; conditions: Homo sapiens, 120 h, Table A-2, 5 days, top concentration 20 μM
Outline: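 Exponentially growing Z-138 cells (10,000 cells/ml) in RPMI 1640 with 10% FBS are exposed to nine-point 3-fold dilutions (final top concentration 20 μM, 0.2% DMSO) for 5 days at 37° C. Viability is measured as ATP by CellTiter-Glo luminescence. The 50% inhibitory concentration comes from a 4-parameter fit.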

PRMT5/MEP50 = target: T1, PRMT5/MEP50 (Homo sapiens, UniProt O14744); assay: PRMT5 Biochemical Assay (PRMT5/MEP50 enzyme assay on peptide substrate, 3H-SAM Flashplate)
T1 construct: Expressed full-length human Flag-PRMT5/6His-MeP50 protein complex was purified; made in house; host or cells: Spodoptera frugiperda (SF9) insect cells, baculovirus (pDEST8)

[1] = Table A-2, PRMT5/MEP50 4 nM, 3H-SAM 75 nM, peptide 40 nM, read-out: Biochemical IC50

T1 sequence (O14744 with tags, fused parts or gaps): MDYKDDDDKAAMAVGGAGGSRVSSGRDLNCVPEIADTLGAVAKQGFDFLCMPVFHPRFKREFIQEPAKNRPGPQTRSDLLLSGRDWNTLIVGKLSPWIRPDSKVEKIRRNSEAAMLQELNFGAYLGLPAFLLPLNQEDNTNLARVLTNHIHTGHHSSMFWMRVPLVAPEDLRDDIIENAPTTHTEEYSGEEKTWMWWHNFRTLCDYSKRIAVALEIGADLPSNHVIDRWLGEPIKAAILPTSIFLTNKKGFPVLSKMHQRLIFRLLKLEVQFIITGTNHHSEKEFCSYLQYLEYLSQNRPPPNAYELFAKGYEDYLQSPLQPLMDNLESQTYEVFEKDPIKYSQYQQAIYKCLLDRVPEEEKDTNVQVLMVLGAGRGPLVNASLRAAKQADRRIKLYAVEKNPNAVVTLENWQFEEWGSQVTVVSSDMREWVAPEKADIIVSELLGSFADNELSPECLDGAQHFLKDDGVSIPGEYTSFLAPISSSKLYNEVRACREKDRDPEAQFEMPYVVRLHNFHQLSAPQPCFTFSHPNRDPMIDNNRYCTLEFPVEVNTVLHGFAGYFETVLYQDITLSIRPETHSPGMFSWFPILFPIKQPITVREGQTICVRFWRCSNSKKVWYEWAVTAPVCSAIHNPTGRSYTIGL
T1 sequence (Q9BQA1 with tags, fused parts or gaps partner limits assumed): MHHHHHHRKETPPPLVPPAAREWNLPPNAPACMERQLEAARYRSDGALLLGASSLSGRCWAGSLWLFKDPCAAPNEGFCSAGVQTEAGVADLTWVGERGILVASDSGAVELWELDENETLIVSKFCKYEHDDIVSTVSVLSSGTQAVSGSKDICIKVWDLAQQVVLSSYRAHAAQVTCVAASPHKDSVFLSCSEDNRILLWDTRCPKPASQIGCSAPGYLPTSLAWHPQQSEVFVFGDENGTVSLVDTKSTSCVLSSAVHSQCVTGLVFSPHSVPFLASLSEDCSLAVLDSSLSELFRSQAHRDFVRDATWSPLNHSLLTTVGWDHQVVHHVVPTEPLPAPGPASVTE

Compound	EC50 (Z-138 cells) [nM]	IC50 (PRMT5/MEP50; [1]) [nM]	IC50 (PRMT5/MEP50; Biochemical IC50) [nM]
CS(=O)(=O)c1cccc(OCC(=O)NCC(O)CN2CCc3ccccc3C2)c1 (stereo not drawn) [Compound A47]	1000 to 10000	< 100	–
CNC(=O)c1ccccc1OCC(=O)NCC(O)CN1CCc2ccccc2C1 (stereo not drawn) [Compound A112]	> 20000	101 to 1000	–
CN(C)c1ccc2cccc(OCC(=O)NC[C@H](O)CN3CCc4ccccc4C3)c2n1 [Compound A104]	> 20000	101 to 1000	–
CN1CCC(n2ncc3cc(OCC(=O)NCC(O)CN4CCc5ccccc5C4)ccc32)C1 (stereo not drawn) [Compound A96]	10000 to 50000	< 100	–
CC(=O)N1CCc2c(cccc2OCC(=O)NCC(O)CN2CCc3ccccc3C2)C1 (stereo not drawn) [Compound A101]	1000 to 10000	< 100	–
O=C(COc1cccc2c1CNCC2)NCC(O)CN1CCc2ccccc2C1 (stereo not drawn) [Compound A119]	10000 to 50000	< 100	–
O=C(COc1ccccc1N1CCOCC1)NCC(O)CN1CCc2ccccc2C1 (stereo not drawn) [Compound A49]	1000 to 10000	< 100	–
CS(=O)(=O)Nc1ccccc1OCC(=O)NCC(O)CN1CCc2ccccc2C1 (stereo not drawn) [Compound A53]	1000 to 10000	< 100	–
O=C(COc1ccccc1C1CCCCC1)NCC(O)CN1CCc2ccccc2C1 (stereo not drawn) [Compound A40]	1000 to 10000	< 100	–
COc1ccccc1OCC(=O)NCC(O)CN1CCc2ccccc2C1 (stereo not drawn) [Compound A22]	1000 to 10000	< 100	–
O=C(COc1ccccc1C1CCNC1)NCC(O)CN1CCc2ccccc2C1 (stereo not drawn) [Compound A116]	> 20000	1000 to 10000	–
CN(C)c1ccc2cccc(OCC(=O)NC[C@@H](O)CN3CCc4ccccc4C3)c2n1 [Compound A105]	1000 to 10000	< 100	–
CN(C)c1cccc(OCC(=O)NCC(O)CN2CCc3ccccc3C2)c1 (stereo not drawn) [Compound A27]	1000 to 10000	< 100	–
O=C(COc1cccc2c1OCCO2)NCC(O)CN1CCc2ccccc2C1 (stereo not drawn) [Compound A100]	1000 to 10000	< 100	–
C[C@@H](Oc1cccc2cccnc12)C(=O)NC[C@@H](O)CN1CCc2ccccc2C1 [Compound A74]	1000 to 10000	< 100	–
CC(=O)N1CCN(S(=O)(=O)c2ccccc2OCC(=O)NCC(O)CN2CCc3ccccc3C2)CC1 (stereo not drawn) [Compound A122]	> 20000	101 to 1000	–
CN1CCN(S(=O)(=O)c2ccccc2OCC(=O)NCC(O)CN2CCc3ccccc3C2)CC1 (stereo not drawn) [Compound A108]	10000 to 50000	< 100	–
CNS(=O)(=O)c1ccccc1OCC(=O)NCC(O)CN1CCc2ccccc2C1 (stereo not drawn) [Compound A123]	1000 to 10000	< 100	–
CC(Oc1cccc2cccnc12)C(=O)NCC(O)CN1CCc2ccccc2C1 (stereo not drawn) [Compound A39]	101 to 1000	< 100	–

Compound	EC50 (Z-138 cells) [nM]	IC50 (PRMT5/MEP50; [1]) [nM]	IC50 (PRMT5/MEP50; Biochemical IC50) [nM]
NC(=O)c1ccccc1OCC(=O)NCC(O)CN1CCc2ccccc2C1 (stereo not drawn) [Compound A29]	> 20000	101 to 1000	–
CC(=O)Nc1ccccc1OCC(=O)NCC(O)CN1CCc2ccccc2C1 (stereo not drawn) [Compound A36]	> 20000	101 to 1000	–
N#Cc1ccccc1OCC(=O)NCC(O)CN1CCc2ccccc2C1 (stereo not drawn) [Compound A17]	10000 to 50000	101 to 1000	–
O=C(COc1ccccc1C1CCCNC1)NCC(O)CN1CCc2ccccc2C1 (stereo not drawn) [Compound A117]	1000 to 10000	101 to 1000	–
CC(=O)Nc1ccc(OCC(=O)NCC(O)CN2CCc3ccccc3C2)cc1 (stereo not drawn) [Compound A21]	> 20000	101 to 1000	–
CC(C)(Oc1cccc2cccnc12)C(=O)NCC(O)CN1CCc2ccccc2C1 (stereo not drawn) [Compound A43]	1000 to 10000	< 100	–
O=C(COc1ccccc1C1CCNCC1)NCC(O)CN1CCc2ccccc2C1 (stereo not drawn) [Compound A103]	> 20000	< 100	–
Cn1ncc2ccc(OCC(=O)NCC(O)CN3CCc4ccccc4C3)cc21 (stereo not drawn) [Compound A23]	1000 to 10000	< 100	–
O=C(COc1cccc2ccc(N3CCOCC3)nc12)NCC(O)CN1CCc2ccccc2C1 (stereo not drawn) [Compound A48]	10000 to 50000	< 100	–
COc1ccc2cccc(OCC(=O)NC[C@H](O)CN3CCc4ccccc4C3)c2n1 [Compound A97]	1000 to 10000	101 to 1000	–
CS(=O)(=O)c1ccccc1OCC(=O)NCC(O)CN1CCc2ccccc2C1 (stereo not drawn) [Compound A37]	1000 to 10000	< 100	–
O=C(COc1cccc2ccccc12)NCC(O)CN1CCc2ccccc2C1 (stereo not drawn) [Compound A66]	1000 to 10000	< 100	–
O=C(COc1ccc2ncn(C3CCNCC3)c2c1)NCC(O)CN1CCc2ccccc2C1 (stereo not drawn) [Compound A70]	> 20000	< 100	–
COc1ccc2cccc(OCC(=O)NC[C@@H](O)CN3CCc4ccccc4C3)c2n1 [Compound A98]	1000 to 10000	< 100	–
CS(=O)(=O)N1CCc2c(cccc2OCC(=O)NCC(O)CN2CCc3ccccc3C2)C1 (stereo not drawn) [Compound A102]	1000 to 10000	< 100	–
CN1CCc2cccc(OCC(=O)NCC(O)CN3CCc4ccccc4C3)c2C1 (stereo not drawn) [Compound A120]	> 20000	101 to 1000	–
Cc1ccccc1OCC(=O)NCC(O)CN1CCc2ccccc2C1 (stereo not drawn) [Compound A15]	1000 to 10000	101 to 1000	–
CN(C)c1ccccc1OCC(=O)NCC(O)CN1CCc2ccccc2C1 (stereo not drawn) [Compound A38]	1000 to 10000	< 100	–
O=C(COc1cccc2c1CCCC2)NCC(O)CN1CCc2ccccc2C1 (stereo not drawn) [Compound A64]	1000 to 10000	< 100	–

Compound	EC50 (Z-138 cells) [nM]	IC50 (PRMT5/MEP50; [1]) [nM]	IC50 (PRMT5/MEP50; Biochemical IC50) [nM]
Cc1cccc(OCC(=O)NCC(O)CN2CCc3ccccc3C2)c1 (stereo not drawn) [Compound A26]	1000 to 10000	< 100	–
O=C(CNc1ccccc1)NCC(O)CN1CCc2ccccc2C1 (stereo not drawn) [Compound A18]	> 20000	1000 to 10000	–
O=C(COc1ccccc1-c1ncc[nH]1)NCC(O)CN1CCc2ccccc2C1 (stereo not drawn) [Compound A137]	> 20000	101 to 1000	–
CN(c1cccc(OCC(=O)NCC(O)CN2CCc3ccccc3C2)c1)S(C)(=O)=O (stereo not drawn) [Compound A142]	> 20000	101 to 1000	–
CN(C)c1ncccc1OCC(=O)NCC(O)CN1CCc2ccccc2C1 (stereo not drawn) [Compound A127]	> 20000	101 to 1000	–
O=C(COc1ccccc1F)NCC(O)CN1CCc2ccccc2C1 (stereo not drawn) [Compound A16]	10000 to 50000	101 to 1000	–
O=C(COc1ccccc1)NC[C@H](O)CN1CCc2ccccc2C1 [Compound A32]	10000 to 50000	101 to 1000	–
CN1CCc2c(cccc2OCC(=O)NCC(O)CN2CCc3ccccc3C2)C1 (stereo not drawn) [Compound A99]	1000 to 10000	< 100	–
CN1CCCC(c2ccccc2OCC(=O)NCC(O)CN2CCc3ccccc3C2)C1 (stereo not drawn) [Compound A130]	1000 to 10000	< 100	–
CN(C)S(=O)(=O)c1ccccc1OCC(=O)NCC(O)CN1CCc2ccccc2C1 (stereo not drawn) [Compound A109]	101 to 1000	< 100	–
Cn1cc2c(OCC(=O)NCC(O)CN3CCc4ccccc4C3)cccc2n1 (stereo not drawn) [Compound A118]	> 20000	101 to 1000	–
CC(Oc1ccccc1)C(=O)NCC(O)CN1CCc2ccccc2C1 (stereo not drawn) [Compound A19]	1000 to 10000	< 100	–
CN1CCC(c2ccccc2OCC(=O)NCC(O)CN2CCc3ccccc3C2)CC1 (stereo not drawn) [Compound A134]	> 20000	101 to 1000	–
COc1cccc(OCC(=O)NCC(O)CN2CCc3ccccc3C2)c1 (stereo not drawn) [Compound A20]	1000 to 10000	< 100	–
O=C(COc1ccccc1-c1cc[nH]n1)NC[C@@H](O)CN1CCc2ccccc2C1 [Compound A67]	1000 to 10000	< 100	–
O=C(COc1cccc2c1OCC(=O)N2)NCC(O)CN1CCc2ccccc2C1 (stereo not drawn) [Compound A124]	> 20000	1000 to 10000	–
CS(=O)(=O)N1CCN(c2ccccc2OCC(=O)NCC(O)CN2CCc3ccccc3C2)CC1 (stereo not drawn) [Compound A106]	> 20000	101 to 1000	–
N#Cc1cccc(OCC(=O)NCC(O)CN2CCc3ccccc3C2)c1 (stereo not drawn) [Compound A8]	10000 to 50000	101 to 1000	–
O=C(COc1cccc2cccnc12)NC[C@@H](O)CN1CCc2ccccc2C1 [Compound A45]	101 to 1000	–	< 100
